SMILES strings stand for the structures. Like-named read-outs stand apart in the source and are kept apart here.

A word on the EC50: it is the concentration that produces a half-maximal response. A lower EC50 goes with greater potency. What is called IC50 is the concentration that inhibits the measured activity by half. Low readings indicate inhibition by little substance, high ones a need for much substance. A word on the GI50: it is the concentration that inhibits growth by half. Broadly, the Cmax is the highest concentration seen after dosing. One may read the Tmax as the time from dosing to the highest level. As a reminder, the AUC(0-inf) is total exposure, with the tail of the curve extrapolated.

In one series the test system is HeLa cells. In words: Cells in mitosis (phospho-histone H3, mitotic index), HeLa. It is filed as cell-based. The settings on record: Homo sapiens, % mitotic cells (phospho-histone H3), 24 hours. An excerpt: (§1) Inhibiting the ability of PLK1 and PLK4 to bind to their partners through their PBDs is known to cause cells to arrest in mitosis. Experimentally, this can be measured by assessing the number of cells which are in mitosis at a certain time after treatment with a test compound by immunofluorescent detection of phosphorylated Histone H3 (pH3), a mark which is only present in mitotic cells. PLK1/4-PBD inhibitors are expected to cause a dose-dependent increase in pH3-positive cells, which is reported as Mitotic Index (MI)—the percentage of cells which, at a given time, are positive for this mitotic mark.
(§2) The following protocol was used to measure the effects of atropisomer A-2 and atropisomer A-3 on arresting cells in mitosis.
(§3) Cells were plated at 10 000/well in 96-well plates and incubated overnight. The following day atropisomer A-2 stocks in DMSO were diluted in medium then added to cells with a maximum final DMSO concentration on cells of 0.2%. Cells were incubated with the compound for 24 hours then fixed in 3.7% formaldehyde. Cells were permeabilised with 0.1% Triton X-100 then incubated with anti-phospho-histone H3 (Ser10) antibody (Abcam). The cells were washed with PBS then incubated with AlexaFluor 488 labelled goat anti-rabbit IgG (Invitrogen) in the presence of 4 ug/mL Hoechst 33342 (Invitrogen). […]

Series [1] has as its system U87MG cells. In words: U87MG human glioblastoma cell viability, SRB assay, 72 hours. The series is classed as cell-based. On the procedure:
The following protocol was used to measure the effects of compounds of the invention on U87MG cell viability.
U87MG cells were grown in their recommended growth media/supplements (ATCC). Cells were seeded at a concentration of 5000 cells per well into 96 well plates overnight at 37° C., 5% CO2. Cells were treated with relevant concentrations of test compound for 72 hours. After 72 hours incubation, viability was established using sulforhodamine B (SRB) colorimetric assay. Percentage viability was calculated against the mean of the DMSO treated control samples, and IC50 values for inhibition of cell growth were calculated using GraphPad Prism software by nonlinear regression (4 parameter logistic equation).

For a further series, the system named is KRAS G12V HeLa cell line. In words: HeLa cell viability, oncogenic KRasG12V transgene, Cell Titre Blue. The conditions noted are these: KRAS G12V HeLa cells, 72 hours. It is filed as cell-based. On the procedure:
(§4) Atropisomers A-1, A-2, A-3 and A-4 were tested on HeLa cells engineered to inducibly express wild-type or oncogenic KRasG12V transgenes using the FLP-in/T-Rex system (Invitrogen). Cells were plated, and then treated with or without Doxycycline to induce transgene expression, and then treated with serially-diluted PBD inhibitors. After 72 hours of incubation, cell viability was assessed using the Cell Titre Blue reagent (Promega) and a BMG Pherastar plate reader. The effect of PBD inhibition on cell viability with either wild-type or oncogenic G12V KRAS was assessed using GraphPad Prism.
(§5) From the results obtained by following the above protocol, the GI50 values against the wild-type and KRAS G12V HeLa cell line of each of the atropisomers were determined as shown in Table 12.

Series [2] concerns wild-type KRAS HeLa cells. In words: HeLa cell viability, wild-type KRAS transgene, Cell Titre Blue. The series is classed as cell-based. The settings on record: 72 hours. On the procedure: as §4, §5
Series [3] in a line: Mouse PK, brain exposure after p.o. dosing. It is filed as in vivo, Male CD-1 mice. On the procedure:
(§6) Atropisomers A-2 and A-3 were evaluated in an in vivo mouse model to determine brain and plasma concentrations following p.o. and i.v. dosing.
(§7) Male CD-1 mice were dosed with the compounds of Examples A-2 and A-3, either by i.v. administration (2 mg/kg) or by p.o. administration (10 mg/kg). Eight samples were taken for analysis in the i.v. leg at 2, 10, 30 min, 1, 2, 4, 8, and 24 (for i.v) and 9 samples in the p.o. leg at 15, 30 min, 1, 2, 4, 8, 24, 48 and 72 hrs.
(§8) The compounds of Examples A-2 and A-3 were both formulated in 10% DMSO/90% hydroxypropyl-beta-cyclodextrin (20% w/v in water) for i.v. and p.o. dosing. N =3 mice per time point.
(§9) Post dosing, terminal blood samples were taken from individual animals and delivered into labelled polypropylene tubes containing anticoagulant (EDTA). The samples were held on wet ice for a maximum of 30 min while sampling of all the animals in the cohort was completed. The blood samples were centrifuged for plasma (4° C., 21100 g for 5 min) and the resulting plasma transferred into corresponding labelled tubes. Terminal brains from each PO dosed animal were excised, rinsed with saline and placed into pre-weighed labelled polypropylene tubes and the samples re-weighed prior to storage.
(§10) Quantitative bioanalysis was carried out using liquid chromatography—mass spectroscopy was performed. The results are shown in Tables 14, 15 and 16 below and in FIGS. 12 to 15.

The test system of series [4] is U87MG cells. Briefly: Cells in mitosis (phospho-histone H3, mitotic index), U87MG. It is filed as cell-based. The settings on record: Homo sapiens, U-87 MG; % mitotic cells (phospho-histone H3), 24 hours.
Excerpt: as §1, §2, §3

Series [5] in a line: Mouse PK, plasma after i.v. and p.o. dosing (oral bioavailability). The series is classed as in vivo, Male CD-1 mice. The settings on record: for half-life: read-out: T ½ (converted). The protocol:
as §6, §7, §8, §9, §10

Where [6] appears, read: mouse, po, brain exposure, p.o. 10 mg/kg, male CD-1 mice.
Where [7] appears, read: mouse, 2 mg/kg, 2 mq/Kq IV, male CD-1 mice, plasma.
Setting [8] is: mouse, 10 mg/kg, 10 mq/Kq PO, male CD-1 mice, plasma.

`CN(C)CCNC(=O)c1ccc(-c2ccc(-c3ccc(Cl)cc3)n2-c2ccccc2C(F)(F)F)nc1` (single isomer, unassigned) [Atropisomer A-3, 6-[5-(4-chlorophenyl)-1-[2-(trifluoromethyl)phenyl]pyrrol-2-yl]-N-[2-(dimethylamino)ethyl]pyridine-3-carboxamide]: the figures for the EC50 in the series with HeLa cells and with U87MG cells [4] were 0.03 µM and 0.1 µM, respectively. In the series on U87MG cells [1] (listed as A-3), this molecule returned an IC50 of 0.15 µM. Further, the GI50 in the series with KRAS G12V HeLa cell line (listed as A-3) came to 0.0026 µM; in series [2] (listed as A-3, read-out: WT GI50), 0.00468 µM. Further, the Cmax in series [3] (setting [6]) came out at 604 ng/mL; in series [5] (setting [7]), 274 ng/mL; in series [5] (setting [8]), 322 ng/mL. The Tmax in series [3] (setting [6]) came out at 8 h. Further, the half-life was 8.2 h in series [3] (mouse, po, brain exposure, p.o. 10 mg/kg, male CD-1 mice, read-out: T ½ (converted)); 8.4 h in series [5] (setting [7]); 8.3 h in series [5] (setting [8]). Besides, the AUC(0-t) in series [3] (mouse, po, brain, p.o. 10 mg/kg, male CD-1 mice, read-out: AUClast brain) worked out at 14100 ng·h/mL; in series [5] (mouse, po, plasma, p.o. 10 mg/kg, male CD-1 mice, read-out: AUClast plasma), 6920 ng·h/mL. In series [3] (oral dosing in mice), the “brain exposure (in words)” value was “high brain exposure”. Besides, in series [5] (2 mq/Kq IV, male CD-1 mice, plasma), the CI was 16.8 mL/min/kg. Moreover, in series [5] (10 mq/Kq PO vs 2 mq/Kq IV, male CD-1 mice), the F came to 70%. Moreover, the AUC(0-inf) in series [5] (setting [7]) was found to be 1990 ng·h/mL; in series [5] (setting [8]), 6920 ng·h/mL. Besides, in series [5] (oral dosing in mice), the “oral absorption / oral bioavailability (in words)” value was “highly absorbed”.
As to `CN(C)CCNC(=O)c1ccc(-c2ccc(-c3ccc(Cl)cc3)n2-c2ccccc2C(F)(F)F)nc1` (single isomer, unassigned) [Atropisomer A-4, 6-[5-(4-chlorophenyl)-1-[2-(trifluoromethyl)phenyl]pyrrol-2-yl]-N-[2-(dimethylamino)ethyl]pyridine-3-carboxamide], the IC50 with U87MG cells [1] (listed as A-4) came to 3.94 µM. Also, the concentration for 50% growth inhibition (GI50) in the series with KRAS G12V HeLa cell line (listed as A-4) worked out at 0.153 µM; in series [2] (listed as A-4, read-out: WT GI50) it was 0.254 µM.
